Laboratory results from US9751919B2, “Antimicrobial compositions comprising a hyaluronic acid binding peptide and a β-lactam antibiotic” (priority 2012, dated 2017).
Several values for one entry are separate records, joined by “and”; a condition that tells them apart may be missing. Equal entries are not always repeated. Entries after “also recorded” stand apart in the source; their conditions may differ. Marks after values point to notes of the source that are not given here.

Tests used:
E. coli [1] = test: Checkerboard assay (FIC index); format: cell-based, Escherichia coli; settings: antibiotic combined with PEP35
Description: (§1) Checkerboard assays were carried out as described by Bonapace et al.
(§2) Diagnostic Microbiology and Infectious Diseases 2002; 44:363-366. In brief, checkerboard assays were performed in 96 well microtitre trays using an 8-by-8 well configuration. […] 96-well custom designed microtitre plates contained 100 ul/well of cation adjusted Mueller-Hinton broth (eg. for Enterobacteriaceae) with or without lysed horse blood (2-5% V/V) [eg. for S. pneumoniae] and were inoculated to achieve a final concentration of approximately 5×10^5 CFU/ml and incubated in ambient air for 24 hours prior to reading. Colony counts were performed periodically to confirm inocula. Quality control was performed every two weeks using a variety of ATCC QC organisms including; S. pneumoniae 49619, S. aureus 29213, E. faecalis 29212, E. coli 25922 and P. aeruginosa 27853. […] All peptides were assessed for synergy with β-lactams and vancomycin. For all antimicrobials as well as the peptides, CLSI criteria were used.
(§3) The fractional inhibitory concentration index (FIC index) was used to interpret synergy, antagonism or additivity/indifference. FIC index=FIC of drug A+FIC of drug B where:
(§4) The FIC of drug A and drug B was calculated as follows, FIC drug A=MIC of drug A in combination/MIC of drug A alone and FIC of drug B=MIC of drug B in combination/MIC of drug B alone. Synergy was defined as FIC index ≦0.5, additivity/indifference defined as a FIC between 0.5 and 4 and antagonism defined as an FIC index >4.
(§5) The checkerboard assays were carried out as described by Eliopoulos and Moellering (Chapter 9) in Antibiotic in Laboratory Medicine, Lorian Ed. 1996 as well as Bonapace et al. Diagnostic Microbiology and Infectious Diseases 2002; 44:363-366 and Bonapace et al. Diagnostic Microbiology and Infectious Diseases 2000; 38:43-50. In brief, checkerboard assays were performed in 96 well microtitre trays using an 8-by-8 well configuration. […] 96-well custom designed microtitre plates contained 100 ul/well of cation adjusted Mueller-Hinton broth (eg. for Enterobacteriaceae) with or without lysed horse blood (2-5% V/V) [eg. for S. pneumoniae] and were inoculated to achieve a final concentration of approximately 5×10^5 CFU/ml and incubated in ambient air for 24 hours prior to reading. Colony counts were performed periodically to confirm inocula. Quality control was performed every two weeks using a variety of ATCC QC organisms including; S. pneumoniae 49619, S. aureus 29213, E. faecalis 29212, E. coli 25922 and P. aeruginosa 27853. For all antimicrobials as well as PEP35, CLSI criteria was used.
(§6) The FIC of drug A and drug B is calculated as follows, FIC drug A=MIC of drug A in combination/MIC of drug A alone and FIC of drug B=MIC of drug B in combination/MIC of drug B alone. Synergy is defined as FIC index ≦0.5, additivity/indifference FIC >0.5-4 and antagonism FIC index >4.
(§7) Antimicrobials used included PEP35, cefazolin, ceftriaxone, vancomycin, linezolid, tigecycline and daptomycin versus Gram-positive cocci and PEP35, gentamicin, levofloxacin, piperacillin/tazobactam, meropenem and colistin (Polymyxin E) versus Gram-negative bacilli. These agents were obtained as laboratory grade powders from their respective manufacturers. Stock solutions were prepared and dilutions made as described by the Clinical Laboratory Standards Institute (2005 CLSI).
Organisms included Gram-positive cocci (2 strains of each): Methicillin-susceptible Staphylococcus aureus (MSSA), community-associated (CA) and healthcare-associated (HA) methicillin-resistant Staphylococcus aureus (MRSA), vancomycin-intermediate Staphylococcus aureus (VISA), vancomycin-resistant Staphylococcus aureus (VRSA), methicillin-resistant Staphylococcus epidermidis (MRSE), Streptococcus pyogenes, Streptococcus agalactiae, Streptococcus pneumoniae, Enterococcus faecalis, Enterococcus faecium and vancomycin-resistant enterococcus (VRE). […]

P. aeruginosa = test: Checkerboard assay (FIC index); format: cell-based, Pseudomonas aeruginosa; settings: antibiotic combined with PEP35
Description: as §5, §3, §6, §7
(§8) Organisms included Gram-positive cocci (2 strains of each): Methicillin-susceptible Staphylococcus aureus (MSSA), community-associated (CA) and healthcare-associated (HA) methicillin-resistant Staphylococcus aureus (MRSA), vancomycin-intermediate Staphylococcus aureus (VISA), vancomycin-resistant Staphylococcus aureus (VRSA), methicillin-resistant Staphylococcus epidermidis (MRSE), Streptococcus pyogenes, Streptococcus agalactiae, Streptococcus pneumoniae, Enterococcus faecalis, Enterococcus faecium and vancomycin-resistant enterococcus (VRE). Gram-negative bacilli tested (2 strains of each) included: E. coli, Pseudomonas aeruginosa, Klebsiella pneumoniae, K. oxytoca, Enterobacter cloacae, P. mirabilis and Stenotrophomonas maltophilia. MIC testing, following two subcultures from frozen stock were determined by the CLSI 2005 approved broth microdilution method.

K. pneumoniae = test: Checkerboard assay (FIC index); format: cell-based, Klebsiella pneumoniae; settings: antibiotic combined with PEP35
Description: as §5, §3, §6, §7, §8

K. oxytoca = test: Checkerboard assay (FIC index); format: cell-based, Klebsiella oxytoca; settings: antibiotic combined with PEP35
Description: as §5, §3, §6, §7, §8

E. cloacae = test: Checkerboard assay (FIC index); format: cell-based, Enterobacter cloacae; settings: antibiotic combined with PEP35
Description: as §5, §3, §6, §7, §8

P. mirabilis [2] = test: Checkerboard assay (FIC index); format: cell-based, Proteus mirabilis; settings: antibiotic combined with PEP35
Description: as §5, §3, §6, §7, §8

S. maltophilia = test: Checkerboard assay (FIC index); format: cell-based, Stenotrophomonas maltophilia; settings: antibiotic combined with PEP35
Description: as §5, §3, §6, §7, §8

CA-MRSA = test: MIC (CLSI broth dilution), agent alone; format: cell-based, Staphylococcus aureus; settings: agent alone, in µg/mL
Description: (§9) VISA (strains 92, 95 and 96), VRSA (strains 105 and 106) and E. coli (strain 69717) isolates were also tested. One MSSA was used as a control. All MICs were assessed using CLSI guidelines. Also assessed was the activity of cefazolin, ceftriazone, meropenem, and a piperacillin/tazobactam combination antibiotic. Minimum inhibitory concentration (MIC) is the lowest concentration of an antimicrobial that will inhibit the visible growth of a microorganism after incubation.
(§10) Antimicrobial Susceptibility Testing: A custom designed panel of antimicrobials was created. […] These agents were obtained as laboratory grade powders from their respective manufacturers. Stock solutions were prepared and dilutions made as described by the Clinical Laboratory Standards Institute (2005 CLSI). Following two subcultures from frozen stock the MICs of the antimicrobial agents for the isolates were determined by the CLSI 2005 approved broth macrodilution method. Briefly, test tubes containing doubling antibiotic dilutions (2 ml per tube) of cation adjusted Mueller-Hinton broth (eg. for Enterobacteriaceae) with or without lysed horse blood (2-5% V/V) [eg. for S. pneumoniae] were inoculated to achieve a final concentration of approximately 5×10^5 CFU/ml and incubated in ambient air for 24 hours prior to reading. Colony counts were performed periodically to confirm inocula. Quality control was performed every two weeks using a variety of ATCC QC organisms including; S. aureus 29213, E. faecalis 29212, E. coli 25922 and P. aeruginosa 27853.
(§11) One MSSA was used as a control. All MICs were assessed using CLSI guidelines.
(§12) One MS SA and ATCC reference strains were used as controls. All MICs were assessed using CLSI guidelines.

HA-MRSA = test: MIC (CLSI broth dilution), agent alone; format: cell-based, Staphylococcus aureus; settings: agent alone
Description: as §9, §10, §11, §12

VRSA = test: MIC (CLSI broth dilution), agent alone; format: cell-based, Staphylococcus aureus; parameters: unit not given beside the values
Description: as §9
(§13) Antimicrobial Susceptibility Testing: A custom designed panel of antimicrobials was created. The panel included: PEP35, penicillin, piperacillin/tazobactam, cefazolin, ceftriaxone, meropenem, clarithromycin, clindamycin, gentamicin, amikacin, vancomycin, ciprofloxacin, levofloxacin, moxifloxacin, linezolid, trimethoprim/sulfamethoxazole and doxycycline. These agents were obtained as laboratory grade powders from their respective manufacturers. Stock solutions were prepared and dilutions made as described by the Clinical Laboratory Standards Institute (2005 CLSI). Following two subcultures from frozen stock the MICs of the antimicrobial agents for the isolates were determined by the CLSI 2005 approved broth macrodilution method. Briefly, test tubes containing doubling antibiotic dilutions (2 ml per tube) of cation adjusted Mueller-Hinton broth (eg. for Enterobacteriaceae) with or without lysed horse blood (2-5% V/V) [eg. for S. pneumoniae] were inoculated to achieve a final concentration of approximately 5×10^5 CFU/ml and incubated in ambient air for 24 hours prior to reading. Colony counts were performed periodically to confirm inocula. Quality control was performed every two weeks using a variety of ATCC QC organisms including; S. aureus 29213, E. faecalis 29212, E. coli 25922 and P. aeruginosa 27853. For all antimicrobials as well as PEP35, CLSI criteria were used.
as §11

VISA = test: MIC (CLSI broth dilution), agent alone; format: cell-based, Staphylococcus aureus; parameters: unit: µg/mL
Description: as §9, §13, §11

E. coli [3] = test: MIC (CLSI broth dilution), agent alone; format: cell-based, Escherichia coli; settings: E. coli 69716; agent alone
Description: as §9, §13, §12

[4] = tested on: MRSA, VISA, VRSA and E. coli; test: MIC, agent alone, panel statement; format: cell-based; settings: versus MRSA, VISA, VRSA and E. coli
Description: as §9, §13

[5] = tested on: MRSA, VISA, VRSA and E. coli; test: Checkerboard assay, panel statement; format: cell-based; settings: with β-lactams versus MRSA, VISA, VRSA and E. coli
Description: as §1, §2, §3, §4
The fractional inhibitory concentration index (FIC index) was used to interpret synergy, antagonism or additivity/indifference. FIC index=FIC of drug A+FIC of drug B where the FIC of drug A and drug B was calculated as follows, FIC drug A=MIC of drug A in combination/MIC of drug A alone and FIC of drug B=MIC of drug B in combination/MIC of drug B alone. Synergy was defined as FIC index ≦0.5, additivity/indifference defined as an FIC of between 0.5 and 4 and antagonism defined as an FIC index >4.

P. mirabilis [6] = test: MIC, agent alone (broth microdilution); format: cell-based, Proteus mirabilis; settings: footnote to Table 12; P. mirabilis 80267 and 81569
Source text: as §8

| Compound | Avg ΣFIC (range) (E. coli [1]; E. coli 69716) | Avg ΣFIC (range) (E. coli [1]; E. coli 70752) | Avg ΣFIC (range) (P. aeruginosa; P. aeruginosa 70849) | Avg ΣFIC (range) (P. aeruginosa; P. aeruginosa 71841) | Avg ΣFIC (range) (K. pneumoniae; K. pneumoniae 70508) | Avg ΣFIC (range) (K. pneumoniae; K. pneumoniae 77081) | Avg ΣFIC (range) (K. oxytoca; K. oxytoca 75316) | Avg ΣFIC (range) (K. oxytoca; K. oxytoca 76874) | Avg ΣFIC (range) (E. cloacae; E. cloacae 80194) | Avg ΣFIC (range) (E. cloacae; E. cloacae 83128) | Avg ΣFIC (range) (P. mirabilis [2]; P. mirabilis 80267) | Avg ΣFIC (range) (P. mirabilis [2]; P. mirabilis 81569) | Avg ΣFIC (range) (S. maltophilia; S. maltophilia 73062) | Avg ΣFIC (range) (S. maltophilia; S. maltophilia 77424) | further results |
| --- | --- | --- | --- | --- | --- | --- | --- | --- | --- | --- | --- | --- | --- | --- | --- |
| C[C@H]1COc2c(N3CCN(C)CC3)c(F)cc3c(=O)c(C(=O)O)cn1c23 [Levofloxacin, levofloxacin] | 0.93 (0.56-1.12) | 1.13 (0.75-1.12) | 1.21 (1.03-1.5) | 1.13 (1.0-1.25) | 0.97 (0.75-1.12) | 1.14 (1.06-1.25) | 0.88 (0.53-1.25) | 0.94 (0.62-1.12) | 1.13 (1.0-1.25) | 0.98 (0.75-1.12) | >1* | >1* | 1.21 (1.03-1.5) | 0.94 (0.62-1.12) |  |
| GAHWQFNALTVRGGGS (Laboratory designed HA inhibitor peptide) [PEP-52] |  |  |  |  |  |  |  |  |  |  |  |  |  |  | MIC (CA-MRSA; CA-MRSA 69615 (USA400)): > 512 and 1024; MIC (CA-MRSA; CA-MRSA 70857 (USA400)): > 512 and 1024; MIC (HA-MRSA; HA-MRSA 70798 (USA100/800)): > 512 and > 1024; MIC (HA-MRSA; HA-MRSA 77090 (USA100/800), in µg/mL): > 512 and 1024; MIC (VRSA; VRSA 105): > 512 and > 1024; MIC (VRSA; VRSA 106): > 512 and > 1024; MIC (VISA; VISA 92, in µg/mL): > 512 and 1024; MIC (VISA; VISA 95, in µg/mL): > 512 and 1024; MIC (VISA; VISA 96, in µg/mL): > 512 and 1024; MIC (E. coli [3]): > 512 and > 1024; activity (in words) [4]: no activity; also recorded: not active; synergistic activity (in words) [5]: no synergistic activity |
| colistin (Polymyxin E) | 0.71 (0.31-1.06) | 0.81 (0.31-1.25) | 0.70 (0.28-1.12) | 0.89 (0.53-1.25) | 0.67 (0.31-1.06) | 0.61 (0.18-1.06) | 0.41 (0.24-0.56) and 0.62 (0.18-1.06) and 0.65 (0.18-1.12) | 0.83 (0.31-2.03) | 0.70 (0.31-1.12) | 0.77 (0.5-1.06) | >1** | >1** | 0.88 (0.53-1.25) |  | MIC (P. mirabilis [6]): COL MIC > 4096 |
| gentamicin | 1.4 (1.06-2.12) | 1.05 (0.75-1.25) | 1.11 (1.03-1.25) | 1.05 (0.75-1.25) | 1.13 (1.0-1.25) | 0.89 (0.56-1.25) | 1.24 (0.75-2.12) | 1.10 (0.75-2.06) | 1.4 (0.5-2.12) | 1.05 (0.75-1.25) | >1* | >1* | 1.4 (0.62-2.25) | 1.99 (1.0-4.25) and 1.98 (1.06-4.25) |  |
